Assay results from patent publication US20220265785A1, “COMPOSITION FOR PREVENTING OR TREATING URIC ACID-RELATED DISEASE” (GUANGZHOU CENTURY CLINICAL RESEARCH CO., LTD, priority 2019, published 2022).

Columns and labels:
[1] = tested on: hyperuricemia model animals; test: Effect on fecal uric acid level of hyperuricemia model rats (potassium oxonate + uric acid); format: in vivo, SD rats; conditions: for Fecal uric acid content, Day 0: Day 0, before modeling and before drug; for Fecal uric acid content, Day 0 / Fecal uric acid content, Day 12 / Fecal uric acid content, Day 18: X ± SD; for Fecal uric acid content, Day 12: Day 12, after modeling, before drug; for Fecal uric acid levels compared with the model control group: day 18
Text: (§1) Lysozyme granules, enteric lysozyme granules, and benzbromarone fine granules. Each test drug was moistened and uniformly mixed with 0.5% sodium carboxymethylcellulose for easy administration.
(§2) SD rats. The rats had free access to drinking water and food, and they were adaptively reared for one week before test.
(§3) Except for rats in the blank group, the other rats were modeled for 12 days, and the serum uric acid level of each rat was detected. Then the rats were evenly divided into groups according to the uric acid level of each rat, with 8 animals in each group.
(§4) Lysozyme groups and enteric lysozyme groups: High and low doses of the lysozyme granules and enteric lysozyme granules were respectively taken orally, and the dosages were 10 mg/kg and 30 mg/kg based on the active ingredient, once a day.
(§5) Benzbromarone group: The benzbromarone fine granules were taken orally at a dose of 30 mg/kg based on the active ingredient, once a day.
(§6) The test was carried out for a total of 18 days.
(§7) On day 1 of the test, except for the animals in the blank group, the animals in the other groups were orally given a modeling agent (1.5 g/kg potassium oxonate +0.3 g/kg uric acid, dissolved in 0.5% sodium carboxymethylcellulose) once to start modeling, and thereafter, the same amount of the modeling agent was administrated at the same time every day. 0.5 ml of blood was taken from the orbit before the start of the test (DO) and on day 12
(§8) (D12) of the test, respectively, and centrifuged, then the serum was taken and tested for serum uric acid level using a uric acid assay kit and a microplate reader; in addition, 0.5 g of fresh midsection rat feces were taken, diluted and uniformly mixed with four times volume of phosphate buffer, centrifuged, ultrasonically mixed until uniform, incubated at 100° C. for 40 minutes, cooled and then centrifuged, and the supernatant was taken and tested for fecal uric acid level using the uric acid assay kit and the microplate reader.
(§9) Thereafter, the rats were grouped according to the serum uric acid value of each rat. From day 13 (D13), each rat was given the test drug intragastrically every day, as well as the modeling agent every day. The interval between the administration of the test drug and the administration of the modeling agent was more than 1 hour. The drug administration was stopped after day 18 (D18) of the test, and the serum uric acid levels and fecal uric acid levels were determined according to the previous method.

[2] = tested on: hyperuricemia model animals; test: Effect on serum uric acid level of hyperuricemia model rats (potassium oxonate + uric acid); format: in vivo, SD rats; conditions: for Serum uric acid content, Day 0: Day 0, before modeling and before drug, 8 rats; for Serum uric acid content, Day 0 / Serum uric acid content, Day 12 / Serum uric acid content, Day 18: X ± SD; for Serum uric acid content, Day 12: Day 12, after modeling, before drug (dosing from D13)
Text: as §1, §2, §3, §4, §5, §6, §7, §8, §9

[3] = tested on: patient with hyperuricemia accompanied by gout; test: Lysozyme enteric tablets in patient with hyperuricemia accompanied by gout; format: in vivo, human; conditions: same patient before lysozyme; serum uric acid remained at 700 μmol/L or more
Text: The administration of lysozyme enteric tablets (produced by Xiangbei Welman Pharmaceutical Co., Ltd.) by two patients with hyperuricemia is described below to specifically illustrate the present disclosure.
A person suffering from gout had obvious redness, swelling and pain in the ankles and toes, and difficulty in walking. […] The lysozyme enteric tablets were tried daily (once in the morning, once at noon and once in the evening, 2 g each time). One month later, they felt that the frequency of pain episodes decreased and the difficulty in walking was alleviated.

[4] = 10 mg/kg oral once a day D13-D18
[5] = 30 mg/kg oral once a day D13-D18

Row | Compound | Fecal uric acid content, Day 0 ([1]; 10 mg/kg group) [mmol/L] | Fecal uric acid content, Day 12 ([1]; 10 mg/kg group) [mmol/L] | Fecal uric acid content, Day 18 [1, 4] [mmol/L] | Fecal uric acid content, Day 0 ([1]; 30 mg/kg group) [mmol/L] | Fecal uric acid content, Day 12 ([1]; 30 mg/kg group) [mmol/L] | Fecal uric acid content, Day 18 [1, 5] [mmol/L] | Fecal uric acid levels compared with the model control group [1] | Serum uric acid content, Day 0 ([2]; 10 mg/kg group) [µmol/L] | Serum uric acid content, Day 12 ([2]; 10 mg/kg group) [µmol/L] | Serum uric acid content, Day 18 [2, 4] [µmol/L] | Serum uric acid content, Day 0 ([2]; 30 mg/kg group) [µmol/L] | Serum uric acid content, Day 12 ([2]; 30 mg/kg group) [µmol/L] | Serum uric acid content, Day 18 [2, 5] [µmol/L] | Serum uric acid levels compared with the model control group ([2]; day 18) | Effects of past use to relieve pain and reduce uric acid [3]
1 | Lysozyme: Homemade granules: lysozyme with a potency of more than 20000 U/mg mixed with the same amount of starch, granulated with water | 0.98 ± 0.13 | 1.26 ± 0.24 | 1.84 ± 0.20 | 1.15 ± 0.16 | 1.24 ± 0.20 | 1.98 ± 0.20 | significantly higher | 43.66 ± 4.16 | 122.12 ± 10.27 | 161.97 ± 22.11 | 40.49 ± 3.33 | 120.79 ± 17.64 | 149.76 ± 20.12 | significantly lower | 
2 | CCc1oc2ccccc2c1C(=O)c1cc(Br)c(O)c(Br)c1 [Benzbromarone, reference compound] |  |  |  | 1.12 ± 0.17 | 1.25 ± 0.31 | 1.34 ± 0.31 | did not increase significantly |  |  |  | 41.02 ± 3.71 | 117.14 ± 17.74 | 153.45 ± 26.17 |  | 
3 | CC(C)Cc1ccc(C(C)C(=O)O)cc1 (centres unmarked) [ibuprofen] |  |  |  |  |  |  |  |  |  |  |  |  |  |  | not good
4 | Oc1ncnc2[nH]ncc12 [allopurinol] |  |  |  |  |  |  |  |  |  |  |  |  |  |  | not good
